According to ChEMBL document CHEMBL5335794, “Discovery of novel multifunctional ligands targeting GABA transporters, butyrylcholinesterase, β-secretase, and amyloid β aggregation as potential treatment of Alzheimer's disease” (Eur J Med Chem, 2023):

Experiments:
Cholinesterase = Cholinesterase (Equus caballus, UniProt P81908)
Description: Inhibition of equine serum BuChE using butyrylthiocholine iodide as substrate preincubated for 5 mins followed by substrate addition and measured after 5 mins by DTNB reagent based Ellman's method

[1] = biological target: Acetylcholinesterase (Electrophorus electricus) (UniProt O42275); assay: Inhibition of electric eel AChE using acetylthiocholine iodide as substrate at 10 uM preincubated for 5 mins followed by substrate addition and measured after 5 mins by DTNB reagent based Ellman's method relative to control; conditions: time 10.0 min
Beta-secretase 1 [2] = biological target: T1, Beta-secretase 1 (Homo sapiens, UniProt P56817)
[3] = Inhibition of mouse GAT3 transfected in HEK293 cells assessed as reduction in [3H]-GABA uptake preincubated for 25 mins followed by [3H]-GABA addition and measured after 4 mins by liquid scintillation counting analysis; format: cell-based; conditions: for IC50: HEK293, read-out: pIC50 (converted)
Beta-secretase 1 [4] = biological target: T1, Beta-secretase 1; conditions: dose 50.0 µM, time 60.0 min
GABA transporter 2 = biological target: T2, GABA transporter 2 (Mus musculus, UniProt P31651); assay: Inhibition of mouse GAT2 transfected in HEK293 cells assessed as reduction in [3H]-GABA uptake preincubated for 25 mins followed by [3H]-GABA addition and measured after 10 mins by liquid scintillation counting analysis; format: cell-based; conditions: read-out: pIC50 (converted)
T2 sequence (P31651 whole entry): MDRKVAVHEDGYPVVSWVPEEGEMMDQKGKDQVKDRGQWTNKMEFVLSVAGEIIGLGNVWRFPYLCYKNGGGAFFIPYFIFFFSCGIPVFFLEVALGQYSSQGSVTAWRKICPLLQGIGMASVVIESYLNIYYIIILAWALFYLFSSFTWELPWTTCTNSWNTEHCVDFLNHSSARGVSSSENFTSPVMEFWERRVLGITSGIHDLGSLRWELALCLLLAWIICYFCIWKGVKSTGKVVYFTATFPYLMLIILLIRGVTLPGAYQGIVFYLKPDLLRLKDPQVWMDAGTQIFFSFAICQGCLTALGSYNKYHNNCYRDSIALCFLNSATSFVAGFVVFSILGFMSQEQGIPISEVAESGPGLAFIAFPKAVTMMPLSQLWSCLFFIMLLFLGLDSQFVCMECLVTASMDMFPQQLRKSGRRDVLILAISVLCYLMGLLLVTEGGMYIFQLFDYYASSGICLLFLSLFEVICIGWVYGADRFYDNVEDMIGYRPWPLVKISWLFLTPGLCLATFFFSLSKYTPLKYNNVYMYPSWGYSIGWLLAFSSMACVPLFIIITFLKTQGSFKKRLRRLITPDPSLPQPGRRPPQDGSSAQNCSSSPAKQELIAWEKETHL

GABA transporter 4 = biological target: T3, GABA transporter 4 (Mus musculus, UniProt P31650); assay: Inhibition of mouse GAT4 transfected in HEK293 cells assessed as reduction in [3H]-GABA uptake preincubated for 25 mins followed by [3H]-GABA addition and measured after 4 mins by liquid scintillation counting analysis; format: cell-based; conditions: read-out: pIC50 (converted)
T3 sequence (P31650 whole entry): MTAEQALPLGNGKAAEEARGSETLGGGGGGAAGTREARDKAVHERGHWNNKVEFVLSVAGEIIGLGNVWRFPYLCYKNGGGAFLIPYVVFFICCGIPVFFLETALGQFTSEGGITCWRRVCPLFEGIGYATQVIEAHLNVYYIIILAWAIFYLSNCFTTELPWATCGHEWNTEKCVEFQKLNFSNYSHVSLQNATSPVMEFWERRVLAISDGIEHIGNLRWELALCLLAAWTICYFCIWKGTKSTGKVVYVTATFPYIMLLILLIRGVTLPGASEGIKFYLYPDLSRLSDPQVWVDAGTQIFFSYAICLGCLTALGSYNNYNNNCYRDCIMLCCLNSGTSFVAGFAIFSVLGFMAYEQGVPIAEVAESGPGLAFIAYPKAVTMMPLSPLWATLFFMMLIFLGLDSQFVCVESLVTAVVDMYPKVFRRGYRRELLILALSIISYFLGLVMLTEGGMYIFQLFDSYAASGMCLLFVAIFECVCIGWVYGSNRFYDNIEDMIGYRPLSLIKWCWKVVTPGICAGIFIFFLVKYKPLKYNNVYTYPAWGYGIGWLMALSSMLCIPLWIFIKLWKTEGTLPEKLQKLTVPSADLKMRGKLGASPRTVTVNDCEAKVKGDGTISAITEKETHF

[5] = biological target: Sodium- and chloride-dependent GABA transporter 1 (Mus musculus) (UniProt P31648); assay: Inhibition of NO 711 marker binding to mouse GAT1 assessed as residual activity at 100 uM by LC-ESI-MS/MS based competitive MS binding assay relative to control
[6] = biological target: T4, Sodium- and chloride-dependent GABA transporter 1 (Mus musculus, UniProt P31648); assay: Inhibition of mouse GAT1 transfected in HEK293 cells assessed as reduction in [3H]-GABA uptake preincubated for 25 mins followed by [3H]-GABA addition and measured after 4 mins by liquid scintillation counting analysis; format: cell-based; conditions: read-out: pIC50 (converted)
[7] = biological target: Amyloid-beta precursor protein (Homo sapiens) (UniProt P05067); assay: Inhibition of amyloid beta42 (unknown origin) aggregation expressed in Escherichia coli BL21 (DE3) at 10 uM measured every 5 mins by ThT fluorescence based assay relative to control
[8] = biological target: Amyloid-beta precursor protein (Homo sapiens) (UniProt P05067); assay: Inhibition of amyloid beta40 (unknown origin) aggregation at 10 uM measured every 5 mins by ThT fluorescence based assay relative to control
[9] = biological target: Cholinesterase (Equus caballus) (UniProt P81908); assay: Inhibition of equine serum BuChE using butyrylthiocholine iodide as substrate at 10 uM preincubated for 5 mins followed by substrate addition and measured after 5 mins by DTNB reagent based Ellman's method relative to control; conditions: time 10.0 min
[10] = biological target: T4, Sodium- and chloride-dependent GABA transporter 1; assay: Inhibition of NO 711 marker binding to mouse GAT1 by LC-ESI-MS/MS based competitive MS binding assay

T1 sequence (P56817 whole entry): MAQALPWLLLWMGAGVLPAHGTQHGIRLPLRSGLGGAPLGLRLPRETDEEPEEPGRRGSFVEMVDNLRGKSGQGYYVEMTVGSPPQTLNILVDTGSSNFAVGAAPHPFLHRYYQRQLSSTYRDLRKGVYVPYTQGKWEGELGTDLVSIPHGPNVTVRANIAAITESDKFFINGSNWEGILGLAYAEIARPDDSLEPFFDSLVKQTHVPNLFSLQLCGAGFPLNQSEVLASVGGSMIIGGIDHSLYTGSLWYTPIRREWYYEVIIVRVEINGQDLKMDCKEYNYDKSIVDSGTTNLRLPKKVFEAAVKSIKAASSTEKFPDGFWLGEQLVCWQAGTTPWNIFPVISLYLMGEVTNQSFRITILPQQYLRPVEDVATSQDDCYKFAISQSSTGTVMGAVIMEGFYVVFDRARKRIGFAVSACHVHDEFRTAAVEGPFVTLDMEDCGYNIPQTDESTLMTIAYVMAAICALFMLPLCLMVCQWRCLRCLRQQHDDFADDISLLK
Amyloid-beta precursor protein (Homo sapiens), sequence (P05067 whole entry): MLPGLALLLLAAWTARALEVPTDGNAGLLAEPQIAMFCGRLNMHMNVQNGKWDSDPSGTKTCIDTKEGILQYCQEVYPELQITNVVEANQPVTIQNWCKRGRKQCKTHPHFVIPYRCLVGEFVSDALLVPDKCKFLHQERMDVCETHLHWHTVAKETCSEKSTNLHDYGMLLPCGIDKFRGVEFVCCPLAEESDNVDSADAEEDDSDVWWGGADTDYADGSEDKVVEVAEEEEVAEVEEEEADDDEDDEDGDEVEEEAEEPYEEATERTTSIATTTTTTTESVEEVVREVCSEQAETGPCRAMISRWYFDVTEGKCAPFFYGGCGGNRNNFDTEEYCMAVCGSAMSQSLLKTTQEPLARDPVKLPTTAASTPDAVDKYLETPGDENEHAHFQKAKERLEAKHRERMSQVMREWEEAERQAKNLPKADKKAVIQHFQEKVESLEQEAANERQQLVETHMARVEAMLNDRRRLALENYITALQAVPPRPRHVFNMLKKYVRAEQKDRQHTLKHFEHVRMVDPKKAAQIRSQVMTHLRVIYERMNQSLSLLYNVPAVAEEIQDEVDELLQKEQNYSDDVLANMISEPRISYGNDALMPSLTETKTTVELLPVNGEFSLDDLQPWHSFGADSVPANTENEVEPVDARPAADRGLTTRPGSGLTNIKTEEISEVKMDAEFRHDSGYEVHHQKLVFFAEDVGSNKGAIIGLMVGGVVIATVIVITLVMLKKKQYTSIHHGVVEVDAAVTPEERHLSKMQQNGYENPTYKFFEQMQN
Cholinesterase, sequence (P81908 whole entry): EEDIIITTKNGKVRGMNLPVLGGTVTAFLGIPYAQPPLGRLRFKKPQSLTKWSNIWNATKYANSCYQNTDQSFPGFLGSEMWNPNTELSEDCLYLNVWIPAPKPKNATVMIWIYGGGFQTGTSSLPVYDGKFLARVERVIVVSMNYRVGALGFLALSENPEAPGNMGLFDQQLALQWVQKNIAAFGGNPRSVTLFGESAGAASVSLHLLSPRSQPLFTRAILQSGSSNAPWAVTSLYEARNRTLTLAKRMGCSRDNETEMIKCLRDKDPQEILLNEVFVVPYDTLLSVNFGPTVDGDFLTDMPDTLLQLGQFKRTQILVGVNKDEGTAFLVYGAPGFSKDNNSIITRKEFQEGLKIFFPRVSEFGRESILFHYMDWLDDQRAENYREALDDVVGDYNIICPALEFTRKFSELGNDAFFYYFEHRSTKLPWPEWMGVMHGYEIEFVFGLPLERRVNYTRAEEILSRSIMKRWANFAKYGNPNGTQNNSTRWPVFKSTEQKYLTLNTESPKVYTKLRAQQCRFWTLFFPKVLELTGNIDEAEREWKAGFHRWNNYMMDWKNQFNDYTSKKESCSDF
Acetylcholinesterase (Electrophorus electricus), sequence (O42275 24-633 limits assumed): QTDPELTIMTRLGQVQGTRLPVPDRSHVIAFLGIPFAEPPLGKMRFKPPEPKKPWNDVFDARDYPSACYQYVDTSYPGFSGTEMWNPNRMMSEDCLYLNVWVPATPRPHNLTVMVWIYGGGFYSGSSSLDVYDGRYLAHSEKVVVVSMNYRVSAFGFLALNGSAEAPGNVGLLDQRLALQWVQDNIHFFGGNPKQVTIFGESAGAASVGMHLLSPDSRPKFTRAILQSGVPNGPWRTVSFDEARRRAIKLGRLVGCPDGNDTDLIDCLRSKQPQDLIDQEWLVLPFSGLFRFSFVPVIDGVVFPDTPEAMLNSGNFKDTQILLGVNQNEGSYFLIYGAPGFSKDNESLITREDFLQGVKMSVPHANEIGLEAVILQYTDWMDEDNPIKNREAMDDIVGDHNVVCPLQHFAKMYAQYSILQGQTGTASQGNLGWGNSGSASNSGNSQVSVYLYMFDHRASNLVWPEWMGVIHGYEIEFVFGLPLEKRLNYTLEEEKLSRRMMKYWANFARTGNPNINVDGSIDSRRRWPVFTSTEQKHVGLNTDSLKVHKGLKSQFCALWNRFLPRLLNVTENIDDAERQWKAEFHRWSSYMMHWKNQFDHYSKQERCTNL
Cholinesterase (Equus caballus), sequence (P81908 whole entry): as the sequence (P81908 whole entry) above

SMILES | IC50 (Cholinesterase) | inhibition [1] | IC50 (Beta-secretase 1 [2]) | IC50 [3] | inhibition (Beta-secretase 1 [4]) | IC50 (GABA transporter 2) | IC50 (GABA transporter 4) | Activity [5] | IC50 [6] | inhibition [7] | inhibition [8] | inhibition [9] | pIC50 ([3]; hek293) | Ki [10]
CN(CCC=C1c2ccccc2CCc2ccccc21)C(CCN)C(=O)NCc1ccccc1 (stereo unspecified) | 1.47 µM | 15% | 6.68 µM |  |  |  |  |  |  |  |  |  |  | 
CN(CCOCCN1c2ccccc2Sc2ccccc21)C(CCO)C(=O)NCc1ccc(F)cc1 (stereo unspecified) | 4.54 µM | < 10% |  | 11 µM | 42% | 11.5 µM | 13.2 µM | 84% | 26.9 µM |  |  |  |  | 
CC(=O)NCCC(C(=O)NCc1ccccc1Cl)N(C)CCOCCN1c2ccccc2Sc2ccccc21 (stereo unspecified) | 2.79 µM | < 10% |  | 10.2 µM | 35% | 20.4 µM | 10.2 µM | 86% | 14.1 µM |  |  |  |  | 
CN(CCC=C1c2ccccc2CCc2ccccc21)C(CCN)C(=O)NCc1ccccc1Cl (stereo unspecified) | 1.23 µM | 28% | 5.13 µM |  |  |  |  |  |  |  |  |  |  | 
O=C(NCCCCCCCCNc1c2c(nc3cc(Cl)ccc13)CCCC2)c1ccc2nc(-c3ccc(Cl)cc3)c3c(c2c1)NCCC3 |  |  |  |  |  |  |  |  |  | 72.1% | 80.8% |  |  | 
CN(CCOCCn1c2ccccc2c2ccccc21)C(CCO)C(=O)NCc1ccccc1 (stereo unspecified) | 4.16 µM | < 10% |  | 14.8 µM | 64% | 26.9 µM | 17.4 µM | 92% | 38 µM |  |  |  |  | 
CN(CCOCCN1c2ccccc2Sc2ccccc21)C(CCO)C(=O)NCc1ccccc1Cl (stereo unspecified) | 3.55 µM | < 10% |  | 26.3 µM | 35% | 31.6 µM | 29.5 µM | 100% | 44.7 µM |  |  |  |  | 
CN(CCC=C1c2ccccc2-c2ccccc21)C(CCO)C(=O)NCc1ccc(Cl)cc1 (stereo unspecified) |  | < 10% | 17.3 µM |  |  |  |  |  |  |  |  | 46% |  | 
Cc1ccc(CNC(=O)C(CCN)N(C)CCC=C2c3ccccc3CCc3ccccc32)cc1 (stereo unspecified) | 2.35 µM | 15% | 4.03 µM |  |  |  |  |  |  |  |  |  |  | 
CN(CC/C=C/c1ccccc1-c1ccccc1)C(CO)C(=O)NCc1ccccc1 (stereo unspecified) | 0.683 µM | < 10% |  | 17 µM | 42% | 20 µM | 17.4 µM | 67% | 25.1 µM |  |  |  |  | 
CN(CC/C=C/c1ccccc1-c1ccccc1)C(CO)C(=O)NCc1ccccc1Cl (stereo unspecified) | 2.27 µM | < 10% |  | 17 µM | 51% | 11 µM | 15.5 µM | 75% | 16.2 µM |  |  |  |  | 
CC(=O)NCCC(C(=O)NCc1ccccc1)N(C)CCOCCN1c2ccccc2Sc2ccccc21 (stereo unspecified) |  | < 10% |  | 11.7 µM | 30% | 19.1 µM | 25.1 µM | 82% | 38 µM |  |  | 58% |  | 
CC(=O)NCCC(C(=O)NCc1ccc(C)cc1)N(C)CCOCCN1c2ccccc2Sc2ccccc21 (stereo unspecified) | 3.2 µM | < 10% |  | 7.94 µM | 52% | 14.1 µM | 12.6 µM | 89% | 22.9 µM |  |  |  |  | 
CN(CCC=C1c2ccccc2-c2ccccc21)C(CCO)C(=O)NCc1ccccc1 (stereo unspecified) | 0.978 µM | < 10% | 19.5 µM |  |  |  |  |  |  | 15.8% | 58.7% |  |  | 
CC(=O)NCCC(C(=O)NCc1ccc(Cl)cc1)N(C)CCOCCN1c2ccccc2Sc2ccccc21 (stereo unspecified) | 4.7 µM | < 10% |  | 8.91 µM | 41% | 9.55 µM | 12.3 µM | 91% | 19.1 µM |  |  |  |  | 
CN(CCOCCN1c2ccccc2Sc2ccccc21)C(CCO)C(=O)NCc1ccccc1 (stereo unspecified) | 4.34 µM | < 10% |  | 8.51 µM | 48% | 12.9 µM | 21.4 µM | 93% | 35.5 µM |  |  |  |  | 
CN(CCOCCn1c2ccccc2c2ccccc21)C(CCO)C(=O)NCc1ccc(F)cc1 (stereo unspecified) | 4.83 µM | < 10% |  | 16.2 µM | 65% | 13.8 µM | 18.2 µM | 112% | 37.2 µM |  |  |  |  | 
Cc1ccc(CNC(=O)C(CCO)N(C)CCOCCN2c3ccccc3Sc3ccccc32)cc1 (stereo unspecified) | 2.48 µM | < 10% |  | 8.51 µM | 30% | 12.9 µM | 19.1 µM | 85% | 20.4 µM |  |  |  |  | 
CC(O)CC(C(=O)NCc1ccccc1)N(C)CC/C=C/c1ccccc1-c1ccccc1 (racemic; form 2) | 3.71 µM |  |  |  |  | 15.1 µM | 41.7 µM |  | 44.7 µM |  |  |  | 4.87 | 24.5 µM
CN(CCC=C1c2ccccc2CCc2ccccc21)C(CCN)C(=O)NCc1ccc(Cl)cc1 (stereo unspecified) | 2.98 µM | 33% | 29 µM |  |  |  |  |  |  |  |  |  |  | 
CN(CCOCCn1c2ccccc2c2ccccc21)C(CCO)C(=O)NCc1ccccc1Cl (stereo unspecified) | 2.65 µM | < 10% |  | 13.2 µM | 79% | 16.2 µM | 11.2 µM | 94% | 23.4 µM |  |  |  |  | 
Cc1ccc(CNC(=O)C(CCN)N(C)CCOCCN2c3ccccc3Sc3ccccc32)cc1 (stereo unspecified) | 3.63 µM | < 10% |  | 7.76 µM | 47% | 7.76 µM | 11.5 µM |  | 11 µM |  |  |  |  | 40.7 µM
CN(CC/C=C/c1ccccc1-c1ccccc1)C(CO)C(=O)NCc1ccc(F)cc1 (stereo unspecified) | 0.917 µM | < 10% |  | 22.9 µM | 52% | 22.4 µM | 30.2 µM | 94% | 28.8 µM |  |  |  |  | 
CN(CCC=C1c2ccccc2CCc2ccccc21)C(CCN)C(=O)NCc1ccc(F)cc1 (stereo unspecified) | 1.21 µM | 21% | 4.88 µM |  |  |  |  |  |  |  |  |  |  | 
CN(CCC=C1c2ccccc2-c2ccccc21)C(CCO)C(=O)NCc1ccc(F)cc1 (stereo unspecified) | 0.978 µM | < 10% |  |  | 66% |  |  |  |  | 21.5% | 77.1% |  |  | 
CN(CCOCCn1c2ccccc2c2ccccc21)C(CCN)C(=O)NCc1ccc(F)cc1 (stereo unspecified) | 0.345 µM | < 10% |  | 17.4 µM | 78% | 20 µM | 18.2 µM | 82% | 33.9 µM | 30.9% | 95.3% |  |  | 
